Consider 36 compounds from US7595401B2, “Therapeutic compounds and their use in cancer” (Myriad Pharmaceuticals, Inc., priority 2006, dated 2009).

Some results are limits rather than exact numbers.

In one experiment the test system is purified human Hsp90. Nature of the experiment: Binding Assay: fluorescence polarization with BODIPY-labeled geldanamycin. Conditions: 5 μM compound, BODIPY-GM 10 nM, Hsp90 30 nM. The method, then: Compound binding to purified Hsp90 was monitored using BODIPY-labeled geldanamycin (BODIPY-GM) in a fluorescence polarization assay adapted from Kim et al. (Journal of Biomolecular Screening 2004, 9(5):375-381). Compound dilutions (in 100% DMSO) were added to black-bottom 96-well plates (Greiner; 2% DMSO final), and equal volumes of BODIPY-GM (10 nM final) and purified human Hsp90 (Stressgen, SPP-770; 30 nM final) in assay buffer (20 mM HEPES-KOH pH 7.3, 50 mM KCl, 5 mM MgCl2, 20 mM Na2MoO4, 0.01% NP-40, 0.1 mg/mL bovine gamma globulin [Invitrogen, P2045], 2 mM DTT) were added sequentially to yield a final volume of 50 microliters. Plates were incubated overnight at room temperature. Parallel and perpendicular fluorescence measurements were read (LJL BioSystems Analyst AD plate reader) with excitation/emission wavelengths of 485/530 nm. Background fluorescence (buffer only) was subtracted, and fluorescence polarization (FP) values, expressed in mP units, were calculated from parallel and perpendicular fluorescence readings as follows: FP=(parallel−perpendicular)/(parallel+perpendicular)*1000
Percent inhibition was calculated by normalizing the FP values to those obtained in parallel reactions containing DMSO and subtracting these normalized values from 100%. Intrinsic compound fluorescence was independently monitored, and FP data points confounded by compound fluorescence were excluded from the analysis.
For the compound `Nc1ncn(CCc2ccccc2)c2nc(Sc3ccc4c(c3)OCO4)nc1-2` [Example 5, 8-(benzo[1,3]dioxol-5-ylsulfanyl)-3-phenethyl-3H-purin-6-ylamine], the “% Inhibition at 5 μM Compound Concentration” value (“% Inhibition” below) worked out at 8%. Turning to `Nc1ncnc2c1nc(Sc1ccc3c(c1)OCO3)n2CCCc1ccccc1` [Example 6, 8-(Benzo[1,3]dioxol-5-ylsulfanyl)-9-(3-phenyl-propyl)-9H-purin-6-ylamine], the “% Inhibition” value came to 66%. Same read-out and setting: the figure for `Nc1ncnc2c1nc(Sc1ccc3c(c1)OCO3)n2CCc1ccc([N+](=O)[O-])cc1` [Example 7, 8-(Benzo[1,3]dioxol-5-ylsulfanyl)-9-[2-(4-nitro-phenyl)-ethyl]-9H-purin-6-ylamine] is 22%; for `COc1ccc(Sc2nc3c(N)ncn(CCc4ccccc4)c-3n2)c(OC)c1` [Example 16, 8-(2,4-dimethoxy-phenylsulfanyl)-3-phenethyl-3H-purin-6-ylamine] it is 6%; for `Nc1ncn(CCc2ccccc2)c2nc(Sc3ccc(Cl)cc3)nc1-2` [Example 18, 8-(4-chloro-phenylsulfanyl)-3-phenethyl-3H-purin-6-ylamine] it is 0%. Still for that read-out and setting: the figure for `N#Cc1ccc(Sc2nc3c(N)ncn(CCc4ccccc4)c-3n2)cc1` [Example 20, 4-(6-amino-3-phenethyl-3H-purin-8-ylsulfanyl)-benzonitrile] is 0%. The same measure, in the same setting: the figure for `COc1ccc(OC)c(Sc2nc3c(N)ncn(CCc4ccc(Cl)cc4Cl)c-3n2)c1` [Example 28, 3-[2-(2,4-dichloro-phenyl)-ethyl]-8-(2,5-dimethoxy-phenyl-sulfanyl)-3H-purin-6-ylamine] is 0%.

Regarding `COc1ccc(OC)c(Sc2nc3c(N)ncn(CCc4ccccc4F)c-3n2)c1` [Example 30, 8-(2,5-dimethoxy-phenylsulfanyl)-3-[2-(2-fluoro-phenyl)-ethyl]-3H-purin-6-ylamine], the “% Inhibition” value turned out to be 16%.

The same experiment, now with this note: BODIPY-GM 10 nM, Hsp90 30 nM.
Compound `Nc1ncnc2c1nc(Sc1ccc3c(c1)OCO3)n2CCCc1ccccc1` [Example 6, 8-(Benzo[1,3]dioxol-5-ylsulfanyl)-9-(3-phenyl-propyl)-9H-purin-6-ylamine] showed an IC50 of 1.06 µM.

For `COc1ccc(OC)c(Sc2nc3c(N)ncnc3n2CCc2ccc([N+](=O)[O-])cc2)c1` [Example 8, 8-(2,5-Dimethoxy-phenylsulfanyl)-9-[2-(4-nitro-phenyl)-ethyl]-9H-purin-6-ylamine], the IC50 was 18 µM. Still for that read-out and setting: the figure for `COc1ccc(OC)c(Sc2nc3c(N)ncnc3n2CCc2ccc(F)cc2)c1` [Example 9, 8-(2,5-Dimethoxy-phenylsulfanyl)-9-[2-(4-fluoro-phenyl)-ethyl]-9H-purin-6-ylamine] is 1 µM; for `COc1ccc(OC)c(Sc2nc3c(N)ncn(CCc4ccc(F)cc4)c-3n2)c1` [Example 10, 8-(2,5-dimethoxy-phenylsulfanyl)-3-[2-(4-fluoro-phenyl)-ethyl]-3H-purin-6-ylamine] it is greater than 50 µM. `Nc1ncnc2c1nc(Sc1ccc3c(c1)OCO3)n2CCc1ccc(F)cc1` [Example 11, 8-(Benzo[1,3]dioxol-5-ylsulfanyl)-9-[2-(4-fluoro-phenyl)-ethyl]-9H-purin-6-ylamine] came in with an IC50 of 0.6 µM. The same measure, in the same setting: the figure for `Nc1ncn(CCc2ccc(F)cc2)c2nc(Sc3ccc4c(c3)OCO4)nc1-2` [Example 12, 8-(benzo[1,3]dioxol-5-ylsulfanyl)-3-[2-(4-fluoro-phenyl)-ethyl]-3H-purin-6-ylamine] is greater than 10 µM.

For the compound `Nc1ncnc2c1nc(Sc1cc3c(cc1Br)OCO3)n2CCc1ccccc1` [Example 13, 8-(6-Bromo-benzo[1,3]dioxol-5-ylsulfanyl)-9-phenethyl-9H-purin-6-ylamine], the IC50 was found to be 0.045 µM. Compound `Nc1ncn(CCc2ccccc2)c2nc(Sc3cc4c(cc3Br)OCO4)nc1-2` [Example 14, 8-(6-bromo-benzo[1,3]dioxol-5-ylsulfanyl)-3-phenethyl-3H-purin-6-ylamine] displayed an IC50 of 5 µM.

For `COc1ccc(Sc2nc3c(N)ncnc3n2CCc2ccccc2)c(OC)c1` [Example 15, 8-(2,4-Dimethoxy-phenylsulfanyl)-9-phenethyl-9H-purin-6-ylamine], the IC50 amounted to 6.5 µM.

`Nc1ncnc2c1nc(S(=O)(=O)c1ccc(Cl)cc1)n2CCc1ccccc1` [Example 17, 8-(4-Chloro-phenylsulfonyl)-9-phenethyl-9H-purin-6-ylamine] showed an IC50 greater than 10 µM. The same measure, in the same setting: with `N#Cc1ccc(Sc2nc3c(N)ncnc3n2CCc2ccccc2)cc1` [Example 19, 4-(6-Amino-9-phenethyl-9H-purin-8-ylsulfanyl)-benzonitrile] the figure was greater than 10 µM; with `N#Cc1ccc(Sc2nc3c(N)ncn(CCc4ccccc4)c-3n2)cc1` [Example 20, 4-(6-amino-3-phenethyl-3H-purin-8-ylsulfanyl)-benzonitrile], greater than 10 µM; with `COc1ccc(OC)c(Sc2nc3c(N)ncnc3n2CCc2ccc(OC)c(OC)c2)c1` [Example 21, 9-[2-(3,4-Dimethoxy-phenyl)-ethyl]-8-(2,5-dimethoxy-phenylsulfanyl)-9H-purin-6-ylamine], greater than 10 µM. On the same count and under the same terms, the figure for `COc1ccc(OC)c(Sc2nc3c(N)ncn(CCc4ccc(OC)c(OC)c4)c-3n2)c1` [Example 22, 3-[2-(3,4-dimethoxy-phenyl)-ethyl]-8-(2,5-dimethoxy-phenylsulfanyl)-3H-purin-6-ylamine] is greater than 10 µM; for `COc1ccc(OC)c(Sc2nc3c(N)ncnc3n2CCc2ccc(C)cc2)c1` [Example 23, 8-(2,5-Dimethoxy-phenylsulfanyl)-9-(2-p-tolyl-ethyl)-9H-purin-6-ylamine] it is greater than 10 µM.

`COc1ccc(OC)c(Sc2nc3c(N)ncn(CCc4ccc(C)cc4)c-3n2)c1` [Example 24, 8-(2,5-dimethoxy-phenylsulfanyl)-3-(2-p-tolyl-ethyl)-3H-purin-6-ylamine] registered an IC50 greater than 10 µM.

Regarding `COc1ccc(OC)c(Sc2nc3c(N)ncnc3n2CCc2ccccc2Cl)c1` [Example 25, 9-[2-(2-Chloro-phenyl)-ethyl]-8-(2,5-dimethoxy-phenylsulfanyl)-9H-purin-6-ylamine], the IC50 was determined as 0.041 µM. In other words, the double-digit nanomolar range. Still for that read-out and setting: the figure for `COc1ccc(OC)c(Sc2nc3c(N)ncn(CCc4ccccc4Cl)c-3n2)c1` [Example 26, 3-[2-(2-chloro-phenyl)-ethyl]-8-(2,5-dimethoxy-phenylsulfanyl)-3H-purin-6-ylamine] is greater than 10 µM; for `COc1ccc(OC)c(Sc2nc3c(N)ncnc3n2CCc2ccc(Cl)cc2Cl)c1` [Example 27, 9-[2-(2,4-Dichloro-phenyl)-ethyl]-8-(2,5-dimethoxy-phenylsulfanyl)-9H-purin-6-ylamine] it is greater than 10 µM; for `COc1ccc(OC)c(Sc2nc3c(N)ncnc3n2CCc2ccccc2F)c1` [Example 29, 8-(2,5-Dimethoxy-phenylsulfanyl)-9-[2-(2-fluoro-phenyl)-ethyl]-9H-purin-6-ylamine] it is 0.15 µM.

The compound `COc1ccc(OC)c(Sc2nc3c(N)ncn(CCc4ccccc4F)c-3n2)c1` [Example 30, 8-(2,5-dimethoxy-phenylsulfanyl)-3-[2-(2-fluoro-phenyl)-ethyl]-3H-purin-6-ylamine] yielded an IC50 greater than 10 µM.

The compound `COc1cc(Sc2nc3c(N)ncnc3n2CCc2ccc(Cl)cc2)cc(OC)c1OC` [Example 31, 9-[2-(4-Chloro-phenyl)-ethyl]-8-(3,4,5-trimethoxy-phenylsulfanyl)-9H-purin-6-ylamine] had an IC50 greater than 10 µM. Same read-out and setting: with `COc1cc(Sc2nc3c(N)ncn(CCc4ccc(Cl)cc4)c-3n2)cc(OC)c1OC` [Example 32, 3-[2-(4-chloro-phenyl)-ethyl]-8-(3,4,5-trimethoxy-phenylsulfanyl)-3H-purin-6-ylamine] the figure was greater than 10 µM; with `Nc1ncnc2c1nc(Sc1cc3c(cc1I)OCO3)n2CCc1ccccc1` [Example 33, 8-(-6-Iodo-benzo[1,3]dioxol-5-ylsulfanyl)-9-phenethyl-9H-purin-6-ylamine], 0.017 µM. On the same count and under the same terms, with `Nc1ncn(CCc2ccccc2)c2nc(Sc3cc4c(cc3I)OCO4)nc1-2` [Example 34, 8-(6-iodo-benzo[1,3]dioxol-5-ylsulfanyl)-3-phenethyl-3H-purin-6-ylamine] the figure was greater than 10 µM; with `COc1cccc(CCn2c(Sc3cc(OC)ccc3OC)nc3c(N)ncnc32)c1` [Example 35, 8-(2,5-Dimethoxy-phenylsulfanyl)-9-[2-(3-methoxy-phenyl)-ethyl]-9H-purin-6-ylamine], 0.8 µM.

`COc1cccc(CCn2cnc(N)c3nc(Sc4cc(OC)ccc4OC)nc2-3)c1` [Example 36, 8-(2,5-dimethoxy-phenylsulfanyl)-3-[2-(3-methoxy-phenyl)-ethyl]-3H-purin-6-ylamine] displayed an IC50 greater than 5 µM. The same measure, in the same setting: with `COc1ccc(OC)c(Sc2nc3c(N)ncnc3n2CCc2cccc(F)c2)c1` [Example 37, 8-(2,5-Dimethoxy-phenylsulfanyl)-9-[2-(3-fluoro-phenyl)-ethyl]-9H-purin-6-ylamine] the figure was 0.8 µM. Same read-out and setting: with `COc1ccc(OC)c(Sc2nc3c(N)ncn(CCc4cccc(F)c4)c-3n2)c1` [Example 38, 8-(2,5-dimethoxy-phenylsulfanyl)-3-[2-(3-fluoro-phenyl)-ethyl]-3H-purin-6-ylamine] the figure was greater than 10 µM; with `Nc1ncnc2c1nc(Sc1cc3c(cc1Br)OCO3)n2CCc1ccc(Cl)cc1F` [Example 39, 8-(6-Bromo-benzo[1,3]dioxol-5-ylsulfanyl)-9-[2-(4-chloro-2-fluorophenyl)-ethyl]-9H-purin-6-ylamine], 0.23 µM. Same read-out and setting: the figure for `Nc1ncn(CCc2ccc(Cl)cc2F)c2nc(Sc3cc4c(cc3Br)OCO4)nc1-2` [Example 40, 8-(6-bromo-benzo[1,3]dioxol-5-ylsulfanyl)-3-[2-(4-chloro-2-fluoro-phenyl)-ethyl]-3H-purin-6-ylamine] is greater than 10 µM.
